Literature values as cited in patent publication US20120219597A1, “PHARMACEUTICAL FORMULATIONS FOR INDIBULIN” (ZIOPHARM Oncology, Inc., priority 2009, published 2012).

What was measured:
[1] = in water, methanol, ethanol or 2-propanol
[2] = pure indibulin

Structure (SMILES): O=C(Nc1ccncc1)C(=O)c1cn(Cc2ccc(Cl)cc2)c2ccccc12 [indibulin]
- solubility [1]: practically insoluble
- bioavailability [2]: low
